Laboratory results published in patent US20100129790A1, “Method for Determining Phospholipidosis” (TAKEDA PHARMACEUTICAL LIMITED, priority 2005, published 2010).
Read-outs that look alike come from different tables or passages of the source.

Columns and labels:
Crj:CD(SD)IGS rats [1] = conditions: rat, in vivo
Procedure: After completion of the administration, in all animals, livers, kidneys, spleens, lungs and mesenteric lymph nodes were sampled, these sampled tissues were examined for histopathological changes by conventional methods of optical microscopy and electron microscopy. In addition, a blood smear sample (Giemsa stain sample) was prepared, and the vacuolated lymphocyte ratio of the peripheral blood was measured with observation under a microscope.

blood [2] = test: GeneChip analysis of blood (Rat Expression Array 230A), 3-day administration; format: in vivo; conditions: rat blood 24 hr after 3 consecutive days of oral administration, pooled, 3 rats per group; dose per compound in table
Procedure: (§1) At 24 hr after completion of the oral administration for 3 consecutive days in Example 1, the blood was collected from the compound administration group and the control (non-administration) group (3 rats per group), which was pooled and subjected to GeneChip analysis.
(§2) After collection using PAXgene Blood RNA Tube (PreAnalytiX), the blood was stood for 2 hr or more, and cryopreserved at −80° C. Total RNA was extracted using a PAXgene Blood RNA Kit (PreAnalytiX). A sample for GeneChip analysis was prepared and analyzed according to the protocol provided by Affymetrix Inc. cDNA synthesis reaction was carried out using a SuperScript Choice system (Invitrogen), then biotin-labeled cRNA synthesis reaction was carried out using Enzo BioArray HighYield RNA Transcript Labeling Kit (Affymetrix), after which cRNA was fragmented and a labeled sample was prepared. The labeled sample was hybridized to Rat Expression Array 230A (RAE230A, Affymetrix), the array was stained, washed and scanned by GeneChip system (Affymetrix), and the following three image data were obtained from one sheet of array.
1. data of staining by a method omitting fluorescence amplification reaction by antibody 2. data of staining by the method described in a manual for once performing fluorescence amplification reaction by antibody 3. data of staining by a method for twice performing fluorescence amplification reaction by antibody
(§3) From the image data, measurement value (Signal), numerical data such as Signal Log Ratio and the like and determination data such as Detection, Change and the like were obtained using MicroarraySuite5.0 (parameter: Default value). Fold Change was calculated from Signal Log Ratio of the image data 2 using the conversion equation of Fold Change=2^Signal Log Ratio.
(§4) (*In GeneChip analysis using RAE230A, 11 sites per one measurement target sequence are measured, and the measurement results at 11 sites are combined to give one numerical value and determination data. RAE230A contains 15924 combinations of 11 site measurement sets, and each measurement set is referred to as a probe set.)
(§5) A probe set wherein two or more of the above-mentioned three image data satisfy the following three conditions was taken as a variation probe set.
(§6) 1. A probe set judged as Increase or Decrease by MicroarraySuite5.0 2. A probe set whose higher measurement value (Signal) was judged as Presence by MicroarraySuite5.0 3.

blood [3] = test: GeneChip analysis of blood (Rat Expression Array 230A), 7-day administration; format: in vivo; conditions: rat blood 24 hr after 7 consecutive days of oral administration, pooled, 4 rats per group; dose per compound in table
Procedure: as §2, §3, §4, §5, §6
as §1, with “7” for “3”, “3,” for “1,”, “(4” for “(3”, “analysis in the same manner as in Example 2.” for “analysis.”

Crj:CD(SD)IGS rats [4] = conditions: rat, in vivo; remark: listed apart in the source

Histopathological findings (PLsis) Kidney (Crj:CD(SD)IGS rats [1]) | Histopathological findings (PLsis) Liver (Crj:CD(SD)IGS rats [1]) | Histopathological findings (PLsis) Lung (Crj:CD(SD)IGS rats [1]) | Histopathological findings (PLsis) Lymph node (Crj:CD(SD)IGS rats [1]) | Histopathological findings (PLsis) Spleen (Crj:CD(SD)IGS rats [1]) | Number of expression variation probe sets, Decreased expression (blood [2]) | Number of expression variation probe sets, Increased expression (blood [2]) | Number of expression variation probe sets, Decreased expression (blood [3]) | Number of expression variation probe sets, Increased expression (blood [3]) | Histopathological findings (PLsis) Liver (Crj:CD(SD)IGS rats [4]) | Histopathological findings (PLsis) Lung (Crj:CD(SD)IGS rats [4]) | Histopathological findings (PLsis) Lymph node (Crj:CD(SD)IGS rats [4]) | Histopathological findings (PLsis) Others (Crj:CD(SD)IGS rats [4]) | Histopathological findings (PLsis) Spleen (Crj:CD(SD)IGS rats [4]) | SMILES
− | − | ++ | ++ | − | 282 | 613 | 457 | 515 | − | + | + | − | + | CCCCc1oc2ccccc2c1C(=O)c1cc(I)c(OCCN(CC)CC)c(I)c1 [Amiodarone, amiodarone]
− | ++ | + | − | − |  |  | 320 | 123 |  |  |  |  |  | CN(C)CCCN1c2ccccc2CCc2ccccc21 [Imipramine, imipramine]
 |  |  |  |  | 391 | 372 |  |  | + | + | + | brain | − | CNCCC(Oc1ccc(C(F)(F)F)cc1)c1ccccc1 (stereo not drawn) [Fluoxetine, fluoxetine]
− | − | + | ++ | − | 94 | 258 | 368 | 546 | + | + | + | − | − | CC/C(=C(\c1ccccc1)c1ccc(OCCN(C)C)cc1)c1ccccc1 [Tamoxifen, tamoxifen]
− | − | + | + | − | 179 | 310 | 83 | 49 | − | + | + | − | + | C1CCC(C(CC2CCCCN2)C2CCCCC2)CC1 (stereo not drawn) [Perhexiline, perhexiline]
− | + | − | − | + | 318 | 382 | 179 | 310 | − | − | + | − | + | CCN(CC)CCCC(C)Nc1ccnc2cc(Cl)ccc12 (stereo not drawn) [Chloroquine, chloroquine]
+ | ++ | + | − | + | 392 | 240 | 103 | 258 | + | + | + | − | − | CCN(CC)CCCC(C)Nc1c2ccc(Cl)cc2nc2ccc(OC)cc12 (stereo not drawn) [Quinacrine, quinacrine]
